Measurements: ChEMBL document CHEMBL5712922, “Synergistic effects of type I PRMT and PARP inhibitors against non-small cell lung cancer cells” (Clin Epigenetics, 2021)
Counter-ions that a name gives are not always drawn. Residues, ends and D or L forms follow the SMILES beside them.

tested on: A549; experiment: Antiproliferative against human A549 cells assessed as viable cells pretreated with MS023 for 24 hrs followed by compound addition at 10 uM measured after for 24 hrs relative to control; conditions: A549, 24 h, read-out: Activity

Row | Compound | viability at 10 µM
1 | O=C(COc1cccc2c(=O)[nH]ccc12)c1ccccc1 | 54.2%
2 | O=C(/C=C/c1ccc(CN(CCO)CCc2c[nH]c3ccccc23)cc1)NO [DACINOSTAT] | 54.2%
3 | CC(C)[C@H](C(=O)Nc1ccc(C(=O)NO)cc1)c1ccccc1 [AR-42] | 54.2%
4 | COc1cc(C)[nH]c(=O)c1CNC(=O)c1c(C)n([C@H](C)C2CCOCC2)c2ccccc12 | 54.2%
5 | O=C(O)CCNc1cc(N2CCc3ccccc3CC2)nc(-c2ccccn2)n1 | 54.2%
6 | CCCCCCCc1ccc(CCc2cccc(O)c2C(=O)O)cc1 | 54.2%
7 | O=C(O)c1ccc(O)c2ncccc12 | 54.2%
8 | Cc1nc(N)sc1-c1ccnc(Nc2ccc(N3CCOCC3)cc2)n1 [CYC-116] | 54.2%
9 | COc1cc2c(cc1NS(=O)(=O)c1ccc(Br)cc1C)n(C)c(=O)n2C | 54.2%
10 | O=C(O)CNC(=O)c1c(O)c2ccccc2n(Cc2ccccc2)c1=O | 54.2%
11 | CC(C)C[C@H](NC(=O)[C@H](Cc1ccccc1)NC(=O)[C@H](CCC(N)=O)NC(=O)[C@H](Cc1ccc(O)cc1)NC(=O)[C@H](C)NC(=O)CNC(=O)[C@H](CCCCN)NC(=O)[C@H](Cc1c[nH]c2ccccc12)NC(=O)[C@@H](NC(=O)[C@H](Cc1c[nH]c2ccccc12)NC(=O)[C@H](CCCCN)NC(=O)CNC(=O)[C@H](CC(N)=O)NC(=O)[C@H](CCC(=O)O)NC(=O)[C@H](Cc1c[nH]c2ccccc12)NC(=O)[C@@H](NC(=O)[C@H](Cc1c[nH]c2ccccc12)NC(=O)[C@H](CO)NC(=O)CNC(=O)[C@@H]1CCCN1C(=O)[C@H](Cc1c[nH]c2ccccc12)NC(=O)[C@H](CCC(N)=O)NC(=O)[C@H](Cc1ccccc1)NC(=O)CNC(=O)[C@@H](N)Cc1cnc[nH]1)[C@@H](C)O)[C@@H](C)O)C(=O)N[C@@H](CCCCN)C(=O)NCC(=O)NCC(=O)NCC(=O)NCC(=O)N[C@@H](CO)C(=O)N[C@@H](CCCNC(=N)N)C(=O)N[C@@H](CCCNC(=N)N)C(=O)N[C@@H](CCCNC(=N)N)C(=O)N[C@@H](CCCNC(=N)N)C(=O)N[C@@H](CCCNC(=N)N)C(=O)N[C@@H](CCCNC(=N)N)C(=O)N[C@@H](CCCNC(=N)N)C(=O)N[C@@H](CCCNC(=N)N)C(=O)N[C@@H](CCCNC(=N)N)C(=O)O (H-HGFQWPGSWTWENGKWTWKGAYQFLKGGGGSRRRRRRRRR-OH) | 54.2%
12 | COc1cc2nc(N3CCCC3)nc(NCCCCCN3CCCC3)c2cc1OC | 54.2%
13 | N#CC[C@H](C1CCCC1)n1cc(-c2ncnc3[nH]ccc23)cn1 [RUXOLITINIB] | 54.2%
14 | Cc1cc(N2C[C@@H](C)N[C@@H](C)C2)ncc1-c1ccc(-c2nc3c(ccn3C)c(=O)[nH]2)cc1 | 54.2%
15 | CCN(c1cc(C#CCN2CCOCC2)cc(C(=O)NCc2c(C)cc(C)[nH]c2=O)c1C)[C@H]1CC[C@H](N(C)CCOC)CC1 | 54.2%
16 | CC[C@@](C)(Nc1ccnc(-c2c[nH]c3ncccc23)n1)C(=O)NCC(F)(F)F [DECERNOTINIB] | 54.2%
17 | NC(=O)C1CCCc2c1[nH]c1ccc(Cl)cc21 (stereo not drawn) | 54.2%
18 | O=C(O)c1ccc(CN2CCC(CN[C@@H]3C[C@H]3c3ccccc3)CC2)cc1 | 54.2%
19 | Cc1cc(Nc2nc(N[C@@H](C)c3ncc(F)cn3)ncc2Cl)[nH]n1 [AZD-1480] | 54.2%
20 | Cc1cc(Nc2cc(CN3CCOCC3)c3nc(C)c(Cc4ccc(Cl)cc4F)n3n2)n[nH]1 [GANDOTINIB] | 54.2%
21 | O=C(c1ccc(/C=C/c2n[nH]c3ccccc23)cc1)N1CCNCC1 [KW-2449] | 54.2%
22 | O=C(NCC(=O)N1CCCC1)Nc1ccc2cnccc2c1 | 54.2%
23 | CCn1cc(C(=O)O)c(=O)c2cc(F)c(N3CCNCC3)cc21 [NORFLOXACIN] | 54.2%
24 | O=C([C@@H](Cc1cccc(C(F)(F)F)c1)NS(=O)(=O)c1cc(F)c2c(c1)CCNC2)N1CCCC1 | 54.2%
25 | C/C(=N\NC(=O)c1cccc(S(=O)(=O)N2CCOCC2)c1)c1cc(Cl)ccc1O | 54.2%
26 | COc1cccc2c1C(=O)c1c(O)c3c(c(O)c1C2=O)C[C@@](O)(C(=O)CO)C[C@@H]3O[C@H]1C[C@H](N)[C@H](O[C@@H]2CCCCO2)[C@H](C)O1 [PIRARUBICIN] | 54.2%

Row | Compound | viability at 10 µM
27 | O=c1ccc2ccc(O)c(O)c2o1 [DAPHNETIN] | 54.2%
28 | CCNC(=O)C[C@@H]1N=C(c2ccc(Cl)cc2)c2cc(OC)ccc2-n2c(C)nnc21 [MOLIBRESIB] | 54.2%
29 | Fc1cc(-c2cccc3ncc(-c4cnn(C5CCNCC5)c4)nc23)cc(F)c1CN1CCOCC1 | 54.2%
30 | N#CCNC(=O)c1ccc(-c2ccnc(Nc3ccc(N4CCOCC4)cc3)n2)cc1 [MOMELOTINIB] | 54.2%
31 | CN1CCC(CNc2ccc3ncc(-c4cccc(OC(F)(F)F)c4)n3n2)CC1 [SGI-1776] | 54.2%
32 | CNNCc1ccc(C(=O)NC(C)C)cc1 | 54.2%
33 | Cc1[nH]c2ccccc2c1CCNCc1ccc(/C=C/C(=O)NO)cc1 [PANOBINOSTAT] | 54.2%
34 | O=c1oc2c(O)c(O)cc3c(=O)oc4c(O)c(O)cc1c4c23 [ELLAGIC ACID] | 54.2%
35 | NC(=O)c1ncn([C@@H]2O[C@H](CO)[C@@H](O)[C@H]2O)c1O [MIZORIBINE] | 54.2%
36 | Cc1sc2c(c1C)C(c1ccc(Cl)cc1)=N[C@@H](CC(=O)OC(C)(C)C)c1nnc(C)n1-2 | 54.2%
37 | Cc1cc(Cl)ccc1OCCCC(=O)NO | 54.2%
38 | Cc1sc2c(c1C)C(c1ccc(Cl)cc1)=N[C@@H](CC(N)=O)c1nnc(C)n1-2 | 54.2%
39 | O=C(c1ccc(Cl)cc1Cl)n1nnc2ccccc21 | 54.2%
40 | O=C1NC(=O)/C(=C/c2cccc(C(F)(F)F)c2)S1 | 54.2%
41 | COc1cc2c(cc1OCCCN1CCCC1)N=C(N)C21CCC1 | 54.2%
42 | CCN(CC)Cc1ccc2cc(COC(=O)Nc3ccc(C(=O)NO)cc3)ccc2c1 [GIVINOSTAT] | 54.2%
43 | COc1cc2c(cc1O)CC[C@@H]1[C@@H]2CC[C@]2(C)[C@@H](O)CC[C@@H]12 [2-METHOXYESTRADIOL] | 54.2%
44 | O=C(O)C(O)C(O)C(=O)O (stereo not drawn) [TARTARIC ACID] | 54.2%
45 | Nc1nccc2c1ncn2[C@@H]1C=C(CO)[C@@H](O)[C@H]1O | 54.2%
46 | N#C/C(=C\c1ccc(O)c(O)c1)C(=O)NCc1ccccc1 | 54.2%
47 | CN(CC[C@H](N)CC(=O)N[C@H]1C=C[C@H](n2ccc(N)nc2=O)O[C@@H]1C(=O)O)C(=N)N | 54.2%
48 | CO[C@@]12[C@H](COC(N)=O)C3=C(C(=O)C(C)=C(N)C3=O)N1C[C@@H]1N[C@@H]12 [MITOMYCIN] | 54.2%
49 | O=C(CCCCCCNC(=O)c1cnc(N(c2ccccc2)c2ccccc2)nc1)NO [RICOLINOSTAT] | 54.2%
50 | Cc1cc(Nc2ccc(NC(=O)c3ccc(Nc4ccnc5ccccc45)cc3)cc2)nc(N)n1 | 54.2%
51 | CC(C)c1cc2c(N3CCN(C4=NCC(C)(C)S4)CC3)ncnc2s1 | 54.2%
52 | N[C@@H]1C[C@H]1c1ccccc1 [TRANYLCYPROMINE HYDROCHLORIDE] | 54.2%

Row | Compound | viability at 10 µM
53 | Nc1ncn([C@@H]2O[C@H](CO)[C@@H](O)[C@H]2O)c(=O)n1 [AZACITIDINE] | 54.2%
54 | Nc1ccccc1NC(=O)c1ccc(CNC(=O)OCc2cccnc2)cc1 [ENTINOSTAT] | 54.2%
55 | C#Cc1cccc(Nc2ncnc3cc(OC)c(OCCCCCCC(=O)NO)cc23)c1 [CUDC-101] | 54.2%
56 | O=c1c(O)c(-c2ccc(O)c(O)c2)oc2cc(O)cc(O)c12 [QUERCETIN] | 54.2%
57 | CCCc1cc2c(N3CCN(C4=NCC(C)(C)S4)CC3)ncnc2s1 | 54.2%
58 | Oc1ccc(/C=C/c2cc(O)cc(O)c2)cc1 [RESVERATROL] | 54.2%
59 | Cc1nc(C(=O)NCC(=O)O)c(O)c2ccc(Oc3ccccc3)cc12 [ROXADUSTAT] | 54.2%
60 | COc1cc2ncnc(Nc3ccc(O)c(Br)c3)c2cc1OC | 54.2%
61 | CCC(CC)(NC(=O)C(C)C)C(=O)N[C@@H](CCCNC(=N)N)C(=O)NC1(C(=O)NC(c2ccc(F)cc2)c2ccc(F)cc2)CCCC1 | 54.2%
62 | COc1cc(Nc2ncc3c(n2)-c2ccc(Cl)cc2C(c2c(F)cccc2OC)=NC3)ccc1C(=O)O [ALISERTIB] | 54.2%
63 | CCc1cccc(CC)c1NC(=O)N1Cc2[nH]nc(NC(=O)c3ccc(N4CCN(C)CC4)cc3)c2C1 [PHA-680632] | 54.2%
64 | CCS(=O)(=O)N1CCC([C@@H](C)n2c(C)c(C(=O)NCc3c(OC)cc(C)[nH]c3=O)c3ccccc32)CC1 | 54.2%
65 | CCS(=O)(=O)c1cccc(-c2cc(C(=O)NC3CCN(C)CC3)c(C)c3[nH]c4ncc(C)cc4c23)c1 [TAK-901] | 54.2%
66 | COc1cc2c(NC3CCN(CC4CCCCC4)CC3)nc(N3CCCN(C(C)C)CC3)nc2cc1OCCCN1CCCCC1 | 54.2%
67 | O=C(CCCCCCC(=O)Nc1ccccc1)NO [VORINOSTAT] | 54.2%
68 | COc1ccc(C(=O)C2CCN(CC(=O)N(Cc3nc4c(c(=O)[nH]3)COCC4)CC3CC3)CC2)cc1 | 54.2%
69 | N[C@H]1CC[C@H](N[C@@H]2C[C@H]2c2ccccc2)CC1 | 54.2%
70 | Cn1c(/C=C/C(=O)NO)ccc1/C=C/C(=O)c1cccc(F)c1 | 54.2%
71 | Cc1cn([C@H]2O[C@@H](CO)[C@H](O)[C@H]2F)c(=O)[nH]c1=O [CLEVUDINE] | 54.2%
72 | CC1=NN(c2ccc(C(=O)O)cc2)C(=O)/C1=C/c1ccc(-c2cc(C)c(C)cc2[N+](=O)[O-])o1 | 54.2%
73 | Cc1csc(-c2nnc(Nc3ccc(Oc4ncccc4-c4ccnc(N)n4)cc3)c3ccccc23)c1 [AMG-900] | 54.2%
74 | CN1CCN(c2cccc(Nc3nc4c(-c5ccc(S(C)(=O)=O)cc5)cccn4n3)c2)CC1 | 54.2%
75 | Cc1cc(C)c(CNC(=O)c2cc(-c3ccc(N4CCN(C)CC4)nc3)cc3c2c(C)cn3C(C)C)c(=O)[nH]1 | 54.2%
76 | CC(C)N(CCCNC(=O)Nc1ccc(C(C)(C)C)cc1)C[C@H]1O[C@@H](n2ccc3c(N)ncnc32)[C@H](O)[C@@H]1O | 54.2%
77 | O=C(NCC1(c2nc(-c3ccccc3)cs2)CCOCC1)c1cccc(-c2noc(C(F)(F)F)n2)c1 | 54.2%
78 | c1ccc([C@@H]2C[C@H]2NC2CCNCC2)cc1 | 54.2%
